Source: ChEMBL document CHEMBL1152186, “Design, synthesis, and evaluation of orally active inhibitors of plasminogen activator inhibitor-1 (PAI-1) production” (Bioorg Med Chem Lett, 2008)
≈ marks a conversion by molar mass, not a printed value.

Legend:
Bos taurus [1] = species: Bos taurus; assay: Inhibition of LPS-induced PAI1 production in BCAEC at 1 uM after 24 hrs relative to T-686; type: functional
[2] = Metabolic stability in dog blood after 1 hr; type: ADME, tissue-based, Canis lupus familiaris; settings: read-out: Stability
Rattus norvegicus [3] = assay: Antithrombotic activity in rat venous thrombosis model assessed as decrease in thrombus weight at 3 mg/kg, po administered for 3 days after 2 hrs last dose; type: functional; parameters: scale not given: the % may be the effect or the level left
Rattus norvegicus [4] = assay: Toxicity in rat assessed as decrease in locomotor activity at 300 mg/kg, po; type: organism-based; parameters: dose 300 mg/kg, route oral; settings: in vivo
[5] = Solubility in water; type: physicochemical
Bos taurus [6] = species: Bos taurus; assay: Inhibition of LPS-induced PAI1 production in BCAEC at 10 uM after 24 hrs relative to T-686; type: functional

SMILES	Activity (Bos taurus [1])	remaining at 1 h [2]	solubility [5]	Activity (Bos taurus [6])	other results
COC(=O)C(=C(/C)c1cc(OC)cc(OC)c1)/C(=C\c1ccccc1)C(=O)Nc1ncccn1	0.1				
COC(=O)C(=C(/C)c1cc(OC)cc(OC)c1)/C(=C\c1ccccc1)C(=O)O	0.4				
COC(=O)C(=C(/C)c1cc(OC)cc(OC)c1)/C(=C\c1ccccc1)C(=O)Nc1cccc2cccnc12	0.4				
COC(=O)C(=C(/C)c1cc(OC)cc(OC)c1)/C(=C\c1ccccc1)C(=O)NCc1cccnc1	1.3	87%	1600 µg/mL (≈ 3.39 mM)		Activity (Rattus norvegicus [3]): 53%; Activity (Rattus norvegicus [4]): Toxic
COC(=O)C(=C(/C)c1cc(OC)cc(OC)c1)/C(=C\c1ccccc1)C(=O)Nc1nnn[nH]1	0.1				
COC(=O)C(=C(/C)c1cc(OC)cc(OC)c1)/C(=C\c1ccccc1)C(=O)NCc1ccncc1	2.1	76%	> 2000 µg/mL		
COC(=O)C(=C(/C)c1cc(OC)cc(OC)c1)/C(=C\c1ccccc1)C(=O)NN1CCN(C)CC1	1.5	89%	> 4000 µg/mL		Activity (Rattus norvegicus [3]): 50%; Activity (Rattus norvegicus [4]): Non-toxic
COC(=O)C(=C(/C)c1cc(OC)cc(OC)c1)/C(=C\c1ccccc1)C(=O)NN1CC[N+](C)([O-])CC1	0.2				
COC(=O)C(=C\c1cc(OC)c(OC)c(OC)c1)/C(=C\c1ccccc1)C(N)=O		75%		0.7	
COC(=O)C(=C(/C)c1cc(OC)cc(OC)c1)/C(=C\c1ccccc1)C(=O)Nc1cccnc1	2.2	83%	> 2000 µg/mL		
COC(=O)C(=C/c1cc(OC)c(OC)c(OC)c1)/C(C(N)=O)=C(\C)c1ccccc1				0.3	
COC(=O)C(=C/c1cc(OC)c(OC)c(OC)c1)/C(=C/c1ccccc1)C(N)=O				0.7	
COC(=O)C(=C(/C)c1cc(OC)cc(OC)c1)/C(=C\c1ccccc1)C(=O)Nc1ccncc1	1.8	87%	> 3000 µg/mL		Activity (Rattus norvegicus [3]): 58%; Activity (Rattus norvegicus [4]): Toxic
COC(=O)C(=C(/C)c1cc(OC)cc(OC)c1)/C(=C\c1ccccc1)C(=O)Nn1cnnc1	0.6				
COc1cc(/C=C2/C(=O)NC(=O)/C2=C/c2ccccc2)cc(OC)c1OC	1	79%	9 µg/mL (≈ 0.0246 mM)	1	
COC(=O)C(=C/c1cc(OC)c(OC)c(OC)c1)/C(=C\c1ccccc1)C(N)=O				0.9	
COC(=O)C(=C(/C)c1cc(OC)cc(OC)c1)/C(=C\c1cccnc1)C(N)=O	0.8				
COC(=O)C(=C(/C)c1cc(OC)cc(OC)c1)/C(=C\c1ccccc1)C(=O)NC1CCN(C)CC1	0.8				
COC(=O)C(=C(/C)c1cc(OC)cc(OC)c1)/C(=C\c1ccncc1)C(N)=O	1.5	88%	> 4000 µg/mL		
COC(=O)C(/C(=C\c1ccccc1)C(N)=O)=C(\C)c1cc(OC)c(OC)c(OC)c1				0.3	
COC(=O)C(=C/c1cc(OC)c(OC)c(OC)c1)/C(C(N)=O)=C(/C)c1ccccc1				0.2	
COC(=O)C(=C(/C)c1cc(OC)c(OC)c(OC)c1)/C(=C\c1ccccc1)C(N)=O	1.5	96%	106 µg/mL (≈ 0.258 mM)	1	
COC(=O)C(=C(/C)c1cc(OC)cc(OC)c1)/C(=C\c1ccccc1)C(=O)N1CCN(C)CC1	0.3				
